Measured values published in patent US20180371044A1, “PEPTIDOMIMETIC MACROCYCLES” (Aileron Therapeutics, Inc., priority 2015, published 2018).
Where a SMILES comes first, the peptide text is derived from it. Bridges are numbered along the chain shown (N, C = ends). [ ]: non-standard residue; d: D form. The star is where a group is joined. NMeY = CN[C@@H](Cc1ccc(O)cc1)C(=O)O; R8 = C=CCCCCCC[C@@](C)(N)C(=O)O; S5 = C=CCCC[C@](C)(N)C(=O)O; Nle = CCCC[C@H](N)C(=O)O; Hexanoyl = CCCCCC(=O)*; Aib = CC(C)(N)C(=O)O

target: T1, human GHRH receptor (hGHRHR) (Homo sapiens, UniProt Q02643); assay: GHRHR agonism measured by cAMP (HTRF) in human 293 cells expressing hGHRHR; type: cell-based; conditions: 30 min at RT;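 note: receptor expressed transiently or stably, cells stimulated in serum-free medium, EC50 from a non-linear dose-response fit, maximal response defined by reference GHRH stimulation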
T1 construct: expressed in transfected cells; host or cells: Human 293 cells
T1 sequence (Q02643 23-423): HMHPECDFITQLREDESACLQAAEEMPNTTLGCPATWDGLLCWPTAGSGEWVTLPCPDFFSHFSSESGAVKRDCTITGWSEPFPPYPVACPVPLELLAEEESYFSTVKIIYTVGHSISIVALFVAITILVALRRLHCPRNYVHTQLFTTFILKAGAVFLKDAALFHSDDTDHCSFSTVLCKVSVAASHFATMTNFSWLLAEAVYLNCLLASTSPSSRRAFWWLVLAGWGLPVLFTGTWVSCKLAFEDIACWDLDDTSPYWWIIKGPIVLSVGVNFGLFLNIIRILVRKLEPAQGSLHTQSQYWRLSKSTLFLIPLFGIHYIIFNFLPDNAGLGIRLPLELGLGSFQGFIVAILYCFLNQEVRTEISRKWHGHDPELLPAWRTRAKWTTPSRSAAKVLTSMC
Protocol: GHRH (1-29) and cross-linked peptidomimetic macrocycles were tested for agonism at the human GHRH receptor (hGHRHR) at various concentrations. Human 293 cells transiently or stably expressing hGHRHR were detached from cell culture flasks with versene (Life Technologies™), suspended in serum-free medium (50 k cells/assay point), and stimulated for 30 min at RT with GHRH (1-29) (Bachem™) or cross-linked peptidomimetic macrocycles. cAMP was quantified using an HTRF®-based assay (CisBio) and used according to the manufacturer's instructions. An EC50 for each agonist was calculated from a non-linear fit of response vs dose (GraphPad™ Prism). The maximum response was determined by stimulating with 10 μM GHRH (1-29). (+=>50 nm; ++=>25-50 nm; +++=>10-25 nm; ++++=>1-10 nm; +++++=≤1 nm).

EC50 | SMILES
1 to 10 nM | CCCCCC(=O)N[C@@H](Cc1ccc(O)cc1)C(=O)N[C@@H](C)C(=O)N[C@@H](CC(=O)O)C(=O)N[C@@H](C)C(=O)N[C@H](C(=O)N[C@@H](Cc1ccccc1)C(=O)N[C@H](C(=O)N[C@@H](C)C(=O)N[C@@H](CO)C(=O)N[C@@H](Cc1ccc(O)cc1)C(=O)N[C@@H](CCCNC(=N)N)C(=O)N[C@@H](CCCCN)C(=O)N[C@H](C(=O)N[C@@H](CC(C)C)C(=O)N[C@@H](C)C(=O)N[C@@H](CCC(N)=O)C(=O)N[C@@H](CC(C)C)C(=O)N[C@@H](CO)C(=O)N[C@@H](C)C(=O)N[C@@H](CCCNC(=N)N)C(=O)N[C@@H](CCCCN)C(=O)N[C@@H](C)C(=O)N[C@@H](CC(C)C)C(=O)N[C@@H](CCC(N)=O)C(=O)N[C@@H](CC(=O)O)C(=O)N[C@H](C(=O)N[C@@H](CCCC)C(=O)N[C@@H](CO)C(=O)N[C@@H](CCCNC(=N)N)C(N)=O)[C@@H](C)CC)C(C)C)[C@@H](C)O)[C@@H](C)CC [SP-39] (Hexanoyl-YADAIFTASYRKVLAQLSARKALQDI[Nle]SR-NH2)
1 to 10 nM | CCCC[C@H](NC(=O)[C@@H](NC(=O)[C@H](CC(=O)O)NC(=O)[C@]1(C)CCCC=CCCCCCC[C@@](C)(NC(=O)[C@H](CCC(N)=O)NC(=O)[C@H](C)NC(=O)[C@H](CC(C)C)NC(=O)[C@@H](NC(=O)[C@H](CCCCN)NC(=O)[C@H](CCCNC(=N)N)NC(=O)[C@H](Cc2ccc(O)cc2)NC(=O)[C@H](CO)NC(=O)[C@H](C)NC(=O)[C@@H](NC(=O)[C@H](Cc2ccccc2)NC(=O)[C@@H](NC(=O)[C@H](C)NC(=O)[C@H](CC(=O)O)NC(=O)[C@H](C)NC(=O)[C@H](Cc2ccc(O)cc2)NC)[C@@H](C)CC)[C@@H](C)O)C(C)C)C(=O)N[C@@H](CO)C(=O)N[C@@H](C)C(=O)N[C@@H](CCCNC(=N)N)C(=O)N[C@@H](CCCCN)C(=O)N[C@@H](C)C(=O)N[C@@H](CC(C)C)C(=O)N1)[C@@H](C)CC)C(=O)N[C@@H](CO)C(=O)N[C@@H](CCCNC(=N)N)C(N)=O [SP-29] (H-[NMeY]ADAIFTASYRKVLAQ[R8]SARKAL[S5]DI[Nle]SR-NH2; staple 17-24)
1 to 10 nM | CCCC[C@H](NC(=O)[C@@H](NC(=O)[C@H](CC(=O)O)NC(=O)[C@H](CCC(N)=O)NC(=O)[C@H](CC(C)C)NC(=O)[C@H](CC(C)C)NC(=O)[C@H](CCCCN)NC(=O)[C@H](CCCNC(=N)N)NC(=O)[C@H](C)NC(=O)[C@H](CO)NC(=O)[C@H](CC(C)C)NC(=O)[C@H](CCC(N)=O)NC(=O)[C@H](C)NC(=O)[C@H](CC(C)C)NC(=O)[C@@H](NC(=O)[C@H](CCCCN)NC(=O)[C@H](CCCNC(=N)N)NC(=O)[C@H](Cc1ccc(O)cc1)NC(=O)[C@H](CO)NC(=O)[C@H](CC(N)=O)NC(=O)[C@@H](NC(=O)[C@H](Cc1ccccc1)NC(=O)[C@@H](NC(=O)[C@H](C)NC(=O)[C@H](CC(=O)O)NC(=O)[C@H](C)NC(=O)[C@@H](N)Cc1ccc(O)cc1)[C@@H](C)CC)[C@@H](C)O)C(C)C)[C@@H](C)CC)C(=O)N[C@@H](CO)C(=O)N[C@@H](CCCNC(=N)N)C(N)=O [SP-5] (H-YADAIFTNSYRKVLAQLSARKLLQDI[Nle]SR-NH2)
≤ 1 nM | CCCC[C@H](NC(=O)[C@@H](NC(=O)[C@H](CC(=O)O)NC(=O)[C@H](CCC(N)=O)NC(=O)[C@H](CC(C)C)NC(=O)[C@H](C)NC(=O)[C@H](CCCCN)NC(=O)[C@H](CCCNC(=N)N)NC(=O)[C@H](C)NC(=O)[C@H](CO)NC(=O)[C@H](CC(C)C)NC(=O)[C@H](CCC(N)=O)NC(=O)[C@H](C)NC(=O)[C@H](CC(C)C)NC(=O)[C@@H](NC(=O)[C@H](CCCCN)NC(=O)[C@H](CCCNC(=N)N)NC(=O)[C@H](Cc1ccc(O)cc1)NC(=O)[C@H](CO)NC(=O)[C@H](C)NC(=O)[C@@H](NC(=O)[C@H](Cc1ccccc1)NC(=O)[C@@H](NC(=O)[C@H](C)NC(=O)[C@H](CC(=O)O)NC(=O)[C@H](C)NC(=O)[C@H](Cc1ccc(O)cc1)NC)[C@@H](C)CC)[C@@H](C)O)C(C)C)[C@@H](C)CC)C(=O)N[C@@H](CC(=O)O)C(=O)N[C@@H](CCCNC(=N)N)C(N)=O [SP-45] (H-[NMeY]ADAIFTASYRKVLAQLSARKALQDI[Nle]DR-NH2)
10 to 25 nM | CCCC[C@H](NC(=O)[C@@H](NC(=O)[C@H](C)NC(=O)[C@H](CCC(N)=O)NC(=O)[C@H](CC(C)C)NC(=O)[C@H](C)NC(=O)[C@H](CCCCN)NC(=O)[C@H](CCCNC(=N)N)NC(=O)[C@]1(C)CCCC=CCCCCCC[C@@](C)(NC(=O)[C@H](CCCNC(=N)N)NC(=O)[C@H](Cc2ccc(O)cc2)NC(=O)[C@H](CO)NC(=O)[C@H](C)NC(=O)[C@@H](NC(=O)[C@H](Cc2ccccc2)NC(=O)[C@@H](NC(=O)[C@H](C)NC(=O)[C@H](CC(=O)O)NC(=O)[C@H](C)NC(=O)[C@H](Cc2ccc(O)cc2)NC)[C@@H](C)CC)[C@@H](C)O)C(=O)N[C@@H](C(C)C)C(=O)N[C@@H](CC(C)C)C(=O)N[C@@H](C)C(=O)N[C@@H](CCC(N)=O)C(=O)N[C@@H](CC(C)C)C(=O)N[C@@H](CO)C(=O)N1)[C@@H](C)CC)C(=O)N[C@@H](CO)C(=O)N[C@@H](CCCNC(=N)N)C(N)=O [SP-61] (H-[NMeY]ADAIFTASYR[R8]VLAQLS[S5]RKALQAI[Nle]SR-NH2; staple 12-19)
10 to 25 nM | CCCC[C@H](NC(=O)[C@@H](NC(=O)[C@H](CC(=O)O)NC(=O)[C@H](CCC(N)=O)NC(=O)[C@H](CC(C)C)NC(=O)[C@H](C)NC(=O)[C@]1(C)CCCC=CCCCCCC[C@@](C)(NC(=O)[C@@H](NC(=O)[C@H](CCCCN)NC(=O)[C@H](CCCNC(=N)N)NC(=O)[C@H](Cc2ccc(O)cc2)NC(=O)[C@H](CO)NC(=O)[C@H](C)NC(=O)[C@@H](NC(=O)[C@H](Cc2ccccc2)NC(=O)[C@@H](NC(=O)[C@H](C)NC(=O)[C@H](CC(=O)O)NC(=O)[C@H](C)NC(=O)[C@H](Cc2ccc(O)cc2)NC)[C@@H](C)CC)[C@@H](C)O)C(C)C)C(=O)N[C@@H](C)C(=O)N[C@@H](CCC(N)=O)C(=O)N[C@@H](CC(C)C)C(=O)N[C@@H](CO)C(=O)N[C@@H](C)C(=O)N[C@@H](CCCNC(=N)N)C(=O)N1)[C@@H](C)CC)C(=O)N[C@@H](CO)C(=O)N[C@@H](CCCNC(=N)N)C(N)=O [SP-26] (H-[NMeY]ADAIFTASYRKV[R8]AQLSAR[S5]ALQDI[Nle]SR-NH2; staple 14-21)
25 to 50 nM | CCCC[C@H](NC(=O)[C@@H](NC(=O)[C@H](CC(=O)O)NC(=O)[C@H](CCC(N)=O)NC(=O)[C@H](CC(C)C)NC(=O)C(C)(C)NC(=O)[C@H](CCCCN)NC(=O)[C@H](CCCNC(=N)N)NC(=O)[C@]1(C)CCCC=CCCCCCC[C@@](C)(NC(=O)[C@H](CCCNC(=N)N)NC(=O)[C@H](Cc2ccc(O)cc2)NC(=O)[C@H](CO)NC(=O)[C@H](C)NC(=O)[C@@H](NC(=O)[C@H](Cc2ccccc2)NC(=O)[C@@H](NC(=O)[C@H](C)NC(=O)[C@H](CC(=O)O)NC(=O)[C@H](C)NC(=O)[C@H](Cc2ccc(O)cc2)NC)[C@@H](C)CC)[C@@H](C)O)C(=O)N[C@@H](C(C)C)C(=O)N[C@@H](CC(C)C)C(=O)N[C@@H](C)C(=O)N[C@@H](CCC(N)=O)C(=O)N[C@@H](CC(C)C)C(=O)N[C@@H](CO)C(=O)N1)[C@@H](C)CC)C(=O)N[C@@H](CO)C(=O)N[C@@H](CCCNC(=N)N)C(N)=O [SP-65] (H-[NMeY]ADAIFTASYR[R8]VLAQLS[S5]RK[Aib]LQDI[Nle]SR-NH2; staple 12-19)
> 50 nM | CCCC[C@H](NC(=O)[C@@H](NC(=O)[C@H](CC(=O)O)NC(=O)[C@H](CCC(N)=O)NC(=O)[C@H](CC(C)C)NC(=O)[C@H](C)NC(=O)[C@H](CCCCN)NC(=O)[C@H](CCCNC(=N)N)NC(=O)[C@]1(C)CCCC=CCCCCCC[C@@](C)(NC(=O)[C@H](CCCNC(=N)N)NC(=O)[C@H](Cc2ccc(O)cc2)NC(=O)[C@H](CO)NC(=O)[C@H](C)NC(=O)[C@@H](NC(=O)[C@H](Cc2ccccc2)NC(=O)[C@@H](NC(=O)[C@H](C)NC(=O)[C@H](CC(=O)O)NC(=O)[C@@H](C)NC(=O)[C@H](Cc2ccc(O)cc2)NC(=O)[C@@H]2CCCN2C(=O)[C@@H]2CCCN2)[C@@H](C)CC)[C@@H](C)O)C(=O)N[C@@H](C(C)C)C(=O)N[C@@H](CC(C)C)C(=O)N[C@@H](C)C(=O)N[C@@H](CCC(N)=O)C(=O)N[C@@H](CC(C)C)C(=O)N[C@@H](CO)C(=O)N1)[C@@H](C)CC)C(=O)N[C@@H](CO)C(=O)N[C@@H](CCCNC(=N)N)C(N)=O [SP-56] (H-PPY[dA]DAIFTASYR[R8]VLAQLS[S5]RKALQDI[Nle]SR-NH2; staple 14-21)

SMILES | EC50
CCCC[C@H](NC(=O)[C@]1(C)CCCC=CCCCCCC[C@@](C)(NC(=O)[C@H](CO)NC(=O)[C@H](CC(C)C)NC(=O)[C@H](CCC(N)=O)NC(=O)[C@H](C)NC(=O)[C@H](CC(C)C)NC(=O)[C@@H](NC(=O)[C@H](CCCCN)NC(=O)[C@H](CCCNC(=N)N)NC(=O)[C@H](Cc2ccc(O)cc2)NC(=O)[C@H](CO)NC(=O)[C@H](C)NC(=O)[C@@H](NC(=O)[C@H](Cc2ccccc2)NC(=O)[C@@H](NC(=O)[C@H](C)NC(=O)[C@H](CC(=O)O)NC(=O)[C@H](C)NC(=O)[C@H](Cc2ccc(O)cc2)NC)[C@@H](C)CC)[C@@H](C)O)C(C)C)C(=O)N[C@@H](CCCNC(=N)N)C(=O)N[C@@H](CCCCN)C(=O)N[C@@H](C)C(=O)N[C@@H](CC(C)C)C(=O)N[C@@H](CCC(N)=O)C(=O)N[C@@H](CC(=O)O)C(=O)N1)C(=O)N[C@@H](CO)C(=O)N[C@@H](CCCNC(=N)N)C(N)=O [SP-31] (H-[NMeY]ADAIFTASYRKVLAQLS[R8]RKALQD[S5][Nle]SR-NH2; staple 19-26) | 1 to 10 nM
